# In ChEMBL document CHEMBL1130517 (Bioorg Med Chem Lett, 1997):
# Key:
# [1] = target: T1, Endothelin-1 receptor (Rattus norvegicus, UniProt P26684); assay: Evaluation for functional inhibitory potency prevention of ET-1 induced constriction of rat aortic rings (ETA receptors); conditions: read-out: pA2 (converted)
# T1 sequence (P26684 whole entry): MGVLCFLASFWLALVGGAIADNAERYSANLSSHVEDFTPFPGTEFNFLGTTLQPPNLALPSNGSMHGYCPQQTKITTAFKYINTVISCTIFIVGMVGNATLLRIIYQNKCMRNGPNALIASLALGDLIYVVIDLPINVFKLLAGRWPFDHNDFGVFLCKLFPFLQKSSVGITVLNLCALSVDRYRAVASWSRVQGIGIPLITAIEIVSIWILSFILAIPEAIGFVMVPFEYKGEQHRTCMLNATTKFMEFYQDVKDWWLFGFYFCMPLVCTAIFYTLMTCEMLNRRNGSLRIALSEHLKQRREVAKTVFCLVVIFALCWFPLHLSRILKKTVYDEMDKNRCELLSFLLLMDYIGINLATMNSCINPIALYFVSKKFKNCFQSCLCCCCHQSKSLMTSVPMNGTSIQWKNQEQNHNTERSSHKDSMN
# [2] = target: T2, Endothelin receptor type B (Homo sapiens, UniProt P24530); assay: Receptor binding affinity was determined against [125I]ET1 with membranes prepared from human placenta for ETB receptor
# T2 sequence (P24530 whole entry): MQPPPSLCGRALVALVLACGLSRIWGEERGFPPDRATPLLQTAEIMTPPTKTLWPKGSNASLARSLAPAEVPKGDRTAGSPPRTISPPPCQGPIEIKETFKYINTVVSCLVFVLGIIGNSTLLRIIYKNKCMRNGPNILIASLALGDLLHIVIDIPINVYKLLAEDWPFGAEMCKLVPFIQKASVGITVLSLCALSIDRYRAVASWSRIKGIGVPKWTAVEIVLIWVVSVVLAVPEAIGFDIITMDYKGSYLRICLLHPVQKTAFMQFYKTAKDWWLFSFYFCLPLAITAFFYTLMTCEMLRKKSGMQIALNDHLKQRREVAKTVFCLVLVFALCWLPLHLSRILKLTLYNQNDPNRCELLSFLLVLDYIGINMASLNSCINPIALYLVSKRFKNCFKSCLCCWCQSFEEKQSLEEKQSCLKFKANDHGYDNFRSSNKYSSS
# [3] = target: T3, Endothelin-1 receptor (Homo sapiens, UniProt P25101); assay: Receptor binding affinity was determined against [125I]ET1 with recombinant human ETA receptor, expressed in baculovirus-infected Sf9 cells
# T3 sequence (P25101 whole entry): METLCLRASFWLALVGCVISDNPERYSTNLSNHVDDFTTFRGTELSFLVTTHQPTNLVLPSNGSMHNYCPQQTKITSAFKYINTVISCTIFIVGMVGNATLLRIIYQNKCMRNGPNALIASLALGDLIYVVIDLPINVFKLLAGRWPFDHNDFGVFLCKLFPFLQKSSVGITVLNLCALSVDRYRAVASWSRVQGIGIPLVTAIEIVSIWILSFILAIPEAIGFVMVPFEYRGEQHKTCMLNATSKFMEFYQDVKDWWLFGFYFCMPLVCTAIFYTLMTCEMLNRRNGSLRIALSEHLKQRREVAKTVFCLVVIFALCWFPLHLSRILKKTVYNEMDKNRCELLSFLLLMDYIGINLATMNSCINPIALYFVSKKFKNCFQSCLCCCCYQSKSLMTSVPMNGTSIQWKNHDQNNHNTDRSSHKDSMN
# [4] = target: T1, Endothelin-1 receptor; assay: Compound was evaluated for in vitro functional inhibitory potency for prevention of ET-1 induced constriction of rat aortic rings (ETA receptors); conditions: read-out: pA2 (converted)
# [5] = target: T4, Endothelin receptor type B (Rattus norvegicus, UniProt P21451); assay: Compound was evaluated for in vitro functional inhibitory potency for prevention of sarafotoxin S6c induced constriction of rat tracheal rings (ETB receptors); conditions: read-out: pA2 (converted)
# T4 sequence (P21451 whole entry): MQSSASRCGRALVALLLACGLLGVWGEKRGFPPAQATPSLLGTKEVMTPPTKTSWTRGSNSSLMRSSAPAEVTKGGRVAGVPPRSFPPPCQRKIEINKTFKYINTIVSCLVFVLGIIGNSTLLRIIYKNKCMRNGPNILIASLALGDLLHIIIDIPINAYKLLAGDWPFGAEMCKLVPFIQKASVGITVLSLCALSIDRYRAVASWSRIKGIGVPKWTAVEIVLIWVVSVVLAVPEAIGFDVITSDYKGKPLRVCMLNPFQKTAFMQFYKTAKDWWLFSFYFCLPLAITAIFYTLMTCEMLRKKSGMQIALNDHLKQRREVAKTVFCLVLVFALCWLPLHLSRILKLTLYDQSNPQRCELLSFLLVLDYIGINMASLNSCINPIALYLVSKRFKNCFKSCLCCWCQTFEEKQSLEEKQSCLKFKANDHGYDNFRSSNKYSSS
# [6] = target: T3, Endothelin-1 receptor; assay: Receptor binding affinity was determined in a radioligand binding assay against [125I]ET1 with recombinant human ETA receptor, expressed in baculovirus-infected […] cells
smiles,measurement,setting,value
CCCc1nc(NS(=O)(=O)c2ccc(C(C)(C)C)cc2)c(Oc2ccccc2OC)c(OCCOC(=O)Nc2ccccn2)n1,Kb,[1],0.0126 µM
same,IC50,[2],0.063 µM
same,IC50,[3],0.009 µM
COc1ccccc1Oc1c(NS(=O)(=O)c2ccc(C(C)(C)C)cc2)nc(C(C)(C)C)nc1OCCOC(=O)Nc1ccccn1,Kb,[1],0.0251 µM
same,IC50,[2],0.144 µM
same,IC50,[3],0.014 µM
COc1ccccc1Oc1c(NS(=O)(=O)c2ccc(C(C)(C)C)cc2)nc(C)nc1OCCOC(=O)Nc1ccncc1,IC50,[2],2.8 µM
same,IC50,[3],1.9 µM
COc1ccccc1Oc1c(NS(=O)(=O)c2ccc(C(C)C)cn2)nc(N2CCSCC2)nc1OCCOC(=O)Nc1ccccn1,Kb,[1],0.00159 µM
same,IC50,[2],0.014 µM
same,IC50,[3],0.001 µM
CNCC(=O)OCCOc1nc(C)nc(NS(=O)(=O)c2ccc(C(C)(C)C)cc2)c1Oc1ccccc1OC,IC50,[2],0.3 µM
same,IC50,[3],1.7 µM
COc1ccccc1Oc1c(NS(=O)(=O)c2ccc(C(C)(C)C)cc2)nc(-c2ncccn2)nc1OCCOC(=O)Nc1ccccn1,Kb,[1],0.001 µM
same,IC50,[2],0.043 µM
COc1ccccc1Oc1c(NS(=O)(=O)c2ccc(C(C)C)cn2)nc(-c2ncccn2)nc1OCCOC(=O)Nc1ccccn1,Kb,[1],0.0001 µM
same,IC50,[2],0.049 µM
same,IC50,[3],0.004 µM
COc1ccccc1Oc1c(NS(=O)(=O)c2ccc(C)cn2)nc(-c2ncccn2)nc1OCCOC(=O)Nc1ccccn1,Kb,[1],0.001 µM
same,IC50,[2],0.17 µM
same,IC50,[3],0.004 µM
COc1ccccc1Oc1c(NS(=O)(=O)c2ccc(C(C)(C)C)cc2)nc(N2CCOCC2)nc1OCCOC(=O)Nc1ccccn1,Kb,[1],0.01 µM
same,IC50,[2],0.019 µM
same,IC50,[3],0.017 µM
COc1ccccc1Oc1c(NS(=O)(=O)c2ccc(C(C)(C)C)cc2)nc(-c2cccs2)nc1OCCOC(=O)Nc1ccccn1,Kb,[1],0.01 µM
same,IC50,[2],0.2 µM
same,IC50,[3],0.03 µM
COc1ccccc1Oc1c(NS(=O)(=O)c2ccc(C)cn2)nc(N2CCOCC2)nc1OCCOC(=O)Nc1ccccn1,Kb,[1],0.0002 µM
same,IC50,[2],0.025 µM
same,IC50,[3],0.0002 µM
COc1ccccc1Oc1c(NS(=O)(=O)c2ccc(C(C)(C)C)cc2)nc(C2CC2)nc1OCCOC(=O)Nc1ccccn1,Kb,[1],0.02 µM
same,IC50,[2],0.06 µM
same,IC50,[3],0.007 µM
COc1ccccc1Oc1c(NS(=O)(=O)c2ccc(C(C)(C)C)cc2)nc(C)nc1OCCOC(=O)c1cccnc1,IC50,[2],0.77 µM
same,IC50,[3],0.88 µM
COc1ccccc1Oc1c(NS(=O)(=O)c2ccc(C(C)(C)C)cc2)nc(C)nc1OCCOC(=O)Nc1cccnc1,IC50,[2],0.7 µM
same,IC50,[3],0.9 µM
COc1ccccc1Oc1c(NS(=O)(=O)c2ccc(C(C)(C)C)cc2)nc(C)nc1OCCOC(=O)Nc1ccccn1,IC50,[2],0.12 µM
same,IC50,[3],0.008 µM
COc1ccccc1Oc1c(NS(=O)(=O)c2ccc(C(C)C)cn2)nc(N2CCCCC2)nc1OCCOC(=O)Nc1ccccn1,Kb,[1],0.00501 µM
same,IC50,[2],0.025 µM
same,IC50,[3],0.003 µM
COc1ccccc1Oc1c(NS(=O)(=O)c2ccc(C(C)(C)C)cc2)nc(C)nc1OCCNC(=O)Nc1ccccn1,IC50,[2],1.24 µM
same,IC50,[3],0.08 µM
COc1ccccc1Oc1c(NS(=O)(=O)c2ccc(C(C)(C)C)cc2)nc(C(C)C)nc1OCCOC(=O)Nc1ccccn1,Kb,[1],0.0158 µM
same,IC50,[2],0.16 µM
same,IC50,[3],0.007 µM
COc1ccccc1Oc1c(NS(=O)(=O)c2ccc(C(C)C)cn2)nc(N2CCOCC2)nc1OCCOC(=O)Nc1ccccn1,Kb,[4],0.000501 µM
same,IC50,[2],0.005 µM
same,Kb,[5],0.0251 µM
same,IC50,[6],0.0007 µM
same,IC50,[3],0.0003 µM
COc1ccccc1Oc1c(NS(=O)(=O)c2ccc(C(C)(C)C)cc2)nc(C)nc1OCCO,IC50,[2],0.07 µM
same,IC50,[3],1.5 µM
COc1ccccc1Oc1c(NS(=O)(=O)c2ccc(C(C)(C)C)cc2)nc(C)nc1OCCOC(=O)c1ccoc1,IC50,[2],1 µM
same,IC50,[3],1.1 µM
COc1ccccc1Oc1c(NS(=O)(=O)c2ccc(C(C)(C)C)cc2)nc(-c2ncccn2)nc1OCCO [BOSENTAN],Kb,[4],0.0501 µM
same,Kb,[5],1.58 µM
